Measured values: PubChem BioAssay AID1919002 (Molecular Pharmacology Branch, DTP, NCI, 2023)

System: 743489-274-T-PDC complex spheroid growth
Test: Anticancer human tumor 743489-274-T-PDC patient-derived renal cell carcinoma cell line growth inhibition [AhR]
Conditions: for IC50: curve of first compound; for viability, T/C: stronger effect = lower value; active = viability on the fitted dose curve at most 10% of control; inactive = the rest
Summary of the method: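 Spheroids combined tumor cells with HUVEC endothelial cells and human MSCs as stroma. AhR antagonists were paired with standard or investigational drugs, each dosed in half-log steps down from near clinical Cmax, or from 10 microM where Cmax was unknown.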

[1] = second compound 0.1 µM, first compound 0.0316 µM
[2] = second compound 0.1 µM, first compound 0.1 µM
[3] = second compound 0.1 µM, first compound 0.316 µM
[4] = second compound 0.1 µM, first compound 1 µM
[5] = second compound 0.316 µM, first compound 0.0316 µM
[6] = second compound 0.316 µM, first compound 0.1 µM
[7] = second compound 0.316 µM, first compound 0.316 µM
[8] = second compound 0.316 µM, first compound 1 µM
[9] = second compound 1 µM, first compound 0.0316 µM
[10] = second compound 1 µM, first compound 0.1 µM
[11] = second compound 1 µM, first compound 0.316 µM
[12] = second compound 1 µM, first compound 1 µM
[13] = second compound 3.16 µM, first compound 0.0316 µM
[14] = second compound 3.16 µM, first compound 0.1 µM
[15] = second compound 3.16 µM, first compound 0.316 µM
[16] = second compound 3.16 µM, first compound 1 µM
[17] = second compound 10 µM, first compound 0.0316 µM
[18] = second compound 10 µM, first compound 0.1 µM
[19] = second compound 10 µM, first compound 0.316 µM
[20] = second compound 10 µM, first compound 1 µM
[21] = second compound 0.1 µM, first compound 3.16 µM
[22] = second compound 0.1 µM, first compound 10 µM
[23] = second compound 0.316 µM, first compound 3.16 µM
[24] = second compound 0.316 µM, first compound 10 µM
[25] = second compound 1 µM, first compound 3.16 µM
[26] = second compound 1 µM, first compound 10 µM
[27] = second compound 3.16 µM, first compound 3.16 µM
[28] = second compound 3.16 µM, first compound 10 µM
[29] = second compound 10 µM, first compound 3.16 µM
[30] = second compound 10 µM, first compound 10 µM
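Note: spheroids exposed to agents for 7 days before readout.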
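Throughout, for viability, T/C: 100% = DMSO vehicle control wells.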

CC1COCCN1c1cc(-c2ccnn2C)c2ccnc(-c3ccn[nH]3)c2n1 (stereo not given) + Cc1cncc(-c2nc(NCCc3c[nH]c4ccccc34)c3ncn(C(C)C)c3n2)c1
inactive: viability, T/C (second compound 0.1 µM, first compound 0.00316 µM) 106% | viability, T/C (second compound 0.1 µM, first compound 0.01 µM) 106% | viability, T/C [1] 113% | viability, T/C [2] 105% | viability, T/C [3] 100% | viability, T/C [4] 84.5% | viability, T/C (second compound 0.316 µM, first compound 0.00316 µM) 99.7% | viability, T/C (second compound 0.316 µM, first compound 0.01 µM) 107% | viability, T/C [5] 109% | viability, T/C [6] 105% | viability, T/C [7] 95.4% | viability, T/C [8] 80.3% | viability, T/C (second compound 1 µM, first compound 0.00316 µM) 108% | viability, T/C (second compound 1 µM, first compound 0.01 µM) 104% | viability, T/C [9] 116% | viability, T/C [10] 99.8% | viability, T/C [11] 102% | viability, T/C [12] 85% | viability, T/C (second compound 3.16 µM, first compound 0.00316 µM) 120% | viability, T/C (second compound 3.16 µM, first compound 0.01 µM) 126% | viability, T/C [13] 122% | viability, T/C [14] 113% | viability, T/C [15] 99.4% | viability, T/C [16] 89.1% | viability, T/C (second compound 10 µM, first compound 0.00316 µM) 116% | viability, T/C (second compound 10 µM, first compound 0.01 µM) 148% | viability, T/C [17] 143% | viability, T/C [18] 142% | viability, T/C [19] 124% | viability, T/C [20] 109%
> 1 µM: IC50 (second compound 0.1 µM) | IC50 (second compound 0.316 µM) | IC50 (second compound 1 µM) | IC50 (second compound 3.16 µM) | IC50 (second compound 10 µM)

CC1COCCN1c1cc(C2(S(C)(=N)=O)CC2)nc(-c2ccnc3[nH]ccc23)n1 (stereo not given) + Cc1cncc(-c2nc(NCCc3c[nH]c4ccccc34)c3ncn(C(C)C)c3n2)c1
inactive: viability, T/C [1] 104% | viability, T/C [2] 93.8% | viability, T/C [3] 89.3% | viability, T/C [4] 86% | viability, T/C [21] 85.9% | viability, T/C [22] 85.4% | viability, T/C [5] 87.9% | viability, T/C [6] 89.8% | viability, T/C [7] 85.1% | viability, T/C [8] 86.4% | viability, T/C [23] 90% | viability, T/C [24] 84.3% | viability, T/C [9] 88.7% | viability, T/C [10] 91.7% | viability, T/C [11] 97.3% | viability, T/C [12] 98.1% | viability, T/C [25] 84.1% | viability, T/C [26] 83.7% | viability, T/C [13] 109% | viability, T/C [14] 108% | viability, T/C [15] 105% | viability, T/C [16] 90.9% | viability, T/C [27] 91.4% | viability, T/C [28] 85.7% | viability, T/C [17] 97.3% | viability, T/C [18] 117% | viability, T/C [19] 92.5% | viability, T/C [20] 107% | viability, T/C [29] 105% | viability, T/C [30] 99.1%
> 10 µM: IC50 (second compound 0.1 µM) | IC50 (second compound 0.316 µM) | IC50 (second compound 1 µM) | IC50 (second compound 3.16 µM) | IC50 (second compound 10 µM)

COc1ccc([C@@H](O)c2cc(-c3ncnc4cc(N5CCOCC5)ccc34)c(F)cc2Cl)nn1 + Cc1cncc(-c2nc(NCCc3c[nH]c4ccccc34)c3ncn(C(C)C)c3n2)c1
2.82 µM: IC50 (second compound 1 µM)
> 10 µM: IC50 (second compound 10 µM)
inactive: viability, T/C [1] 95.3% | viability, T/C [2] 98.9% | viability, T/C [3] 90.3% | viability, T/C [4] 98.1% | viability, T/C [21] 52.9% | viability, T/C [22] 36.1% | viability, T/C [5] 94.2% | viability, T/C [6] 94.6% | viability, T/C [7] 88.4% | viability, T/C [8] 82.8% | viability, T/C [23] 49.4% | viability, T/C [24] 29.4% | viability, T/C [9] 99.5% | viability, T/C [10] 95% | viability, T/C [11] 93.2% | viability, T/C [12] 84.7% | viability, T/C [25] 46% | viability, T/C [26] 35.5% | viability, T/C [13] 112% | viability, T/C [14] 118% | viability, T/C [15] 102% | viability, T/C [16] 87.5% | viability, T/C [27] 53.8% | viability, T/C [28] 39.4% | viability, T/C [17] 114% | viability, T/C [18] 119% | viability, T/C [19] 102% | viability, T/C [20] 99.3% | viability, T/C [29] 65.5% | viability, T/C [30] 59.5%
3.13 µM: IC50 (second compound 0.316 µM)
4.55 µM: IC50 (second compound 3.16 µM)
3.86 µM: IC50 (second compound 0.1 µM)

O=C(C=Cn1cnc(-c2cc(C(F)(F)F)cc(C(F)(F)F)c2)n1)NNc1cnccn1 + Cc1cncc(-c2nc(NCCc3c[nH]c4ccccc34)c3ncn(C(C)C)c3n2)c1
inactive: viability, T/C (second compound 0.1 µM, first compound 0.00949 µM) 103% | viability, T/C (second compound 0.1 µM, first compound 0.03 µM) 95.6% | viability, T/C (second compound 0.1 µM, first compound 0.0949 µM) 112% | viability, T/C (second compound 0.1 µM, first compound 0.3 µM) 122% | viability, T/C (second compound 0.1 µM, first compound 0.949 µM) 124% | viability, T/C (second compound 0.1 µM, first compound 3 µM) 96.5% | viability, T/C (second compound 0.316 µM, first compound 0.00949 µM) 96.2% | viability, T/C (second compound 0.316 µM, first compound 0.03 µM) 92.5% | viability, T/C (second compound 0.316 µM, first compound 0.0949 µM) 97.5% | viability, T/C (second compound 0.316 µM, first compound 0.3 µM) 107% | viability, T/C (second compound 0.316 µM, first compound 0.949 µM) 106% | viability, T/C (second compound 0.316 µM, first compound 3 µM) 83.7% | viability, T/C (second compound 1 µM, first compound 0.00949 µM) 94.5% | viability, T/C (second compound 1 µM, first compound 0.03 µM) 102% | viability, T/C (second compound 1 µM, first compound 0.0949 µM) 98.7% | viability, T/C (second compound 1 µM, first compound 0.3 µM) 105% | viability, T/C (second compound 1 µM, first compound 0.949 µM) 108% | viability, T/C (second compound 1 µM, first compound 3 µM) 104% | viability, T/C (second compound 3.16 µM, first compound 0.00949 µM) 111% | viability, T/C (second compound 3.16 µM, first compound 0.03 µM) 101% | viability, T/C (second compound 3.16 µM, first compound 0.0949 µM) 102% | viability, T/C (second compound 3.16 µM, first compound 0.3 µM) 117% | viability, T/C (second compound 3.16 µM, first compound 0.949 µM) 103% | viability, T/C (second compound 3.16 µM, first compound 3 µM) 96.2% | viability, T/C (second compound 10 µM, first compound 0.00949 µM) 80.4% | viability, T/C (second compound 10 µM, first compound 0.03 µM) 80.2% | viability, T/C (second compound 10 µM, first compound 0.0949 µM) 84.4% | viability, T/C (second compound 10 µM, first compound 0.3 µM) 102% | viability, T/C (second compound 10 µM, first compound 0.949 µM) 102% | viability, T/C (second compound 10 µM, first compound 3 µM) 101%
> 3 µM: IC50 (second compound 0.1 µM) | IC50 (second compound 0.316 µM) | IC50 (second compound 1 µM) | IC50 (second compound 3.16 µM) | IC50 (second compound 10 µM)
